Assay results: patent publication US11352350B2, “IRAK degraders and uses thereof” (Kymera Therapeutics, Inc., priority 2018, dated 2022)
Like-named read-outs stand apart in the source and are kept apart here.

Key:
IRAK4 = IRAK4 (Homo sapiens (Human), UniProt Q9NWZ3); assay: IRAK4 MSD degradation in OCI-LY10; assay type: cell-based
Procedure, shortened: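 Remaining IRAK4 quantified by electrochemiluminescent MSD sandwich assay with two anti-IRAK4 antibodies. Compounds were dosed as 8 concentrations in 1:3 steps from a 1 to 10 μM final top on OCI-LY10 cells, incubated 4 to 24 h at 37° C. under 5% CO2. DC50 fitted with a three-parameter logistic curve.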

OCI-LY10 = assay: CTG Cell Viability Assay - OCI-LY10; assay type: cell-based, human; details: OCI-LY10, 4 days, read-out: CTG Cell Viability Assay - OCI-LY10: Average external-IC50
Protocol: Compound-mediated viability effect on OCI-LY10 or TMD8 was quantitatively determined using the CellTiter-Glo® Luminescent Cell Viability Assay kit from Promega (Catalog number G7570) following manufacturer's recommended procedures. […] Compounds were then added to the assay plate with final top concentration of 10 μM and 1:3 dilution series with total of 9 doses. The final DMSO concentration was normalized to 0.2%. The assay plates were incubated at 37° C. for 4 days under 5% CO2. Then the assay plate was equilibrated at room temperature for 10 minutes. […] The data was then analyzed by software Prism 7.0 from GraphPad and the dose response curves were fit using a three-parameter logistic equation to calculate IC50.

[1] = OCI-LY10, 4 hrs, MSD, read-out: IRAK4 MSD degradation in OCI-LY10 at 4 hrs: Average external-Abs DC50
[2] = OCI-LY10, 4 hrs, read-out: IRAK4 MSD degradation in OCI-LY10 at 4 hrs: DC50
[3] = OCI-LY10, 24 hrs, MSD, read-out: IRAK4 MSD degradation in OCI-LY10 at 24 hrs: Average external-Abs DC50
[4] = OCI-LY10, 24 hrs, read-out: IRAK4 MSD degradation in OCI-LY10 at 24 hrs: DC50

IRAK4, sequence (Q9NWZ3 whole entry): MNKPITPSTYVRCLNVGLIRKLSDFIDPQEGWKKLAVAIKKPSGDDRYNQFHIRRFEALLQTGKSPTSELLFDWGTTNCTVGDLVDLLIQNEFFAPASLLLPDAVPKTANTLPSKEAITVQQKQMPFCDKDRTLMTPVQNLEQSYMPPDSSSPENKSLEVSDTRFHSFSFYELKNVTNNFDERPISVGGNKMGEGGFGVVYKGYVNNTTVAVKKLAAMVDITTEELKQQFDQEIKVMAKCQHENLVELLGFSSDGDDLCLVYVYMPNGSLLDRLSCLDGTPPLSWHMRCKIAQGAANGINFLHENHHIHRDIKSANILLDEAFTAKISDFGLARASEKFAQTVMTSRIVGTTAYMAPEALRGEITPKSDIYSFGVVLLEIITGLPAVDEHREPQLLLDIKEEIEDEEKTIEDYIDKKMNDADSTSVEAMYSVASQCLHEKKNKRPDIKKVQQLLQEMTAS

Structure (SMILES) | DC50 (IRAK4; [1]) [µM] | IC50 (OCI-LY10; Homo sapiens, OCI-Ly10, 96 h) [µM] | DC50 (IRAK4; [2]) [µM] | DC50 (IRAK4; [3]) [µM] | IC50 (OCI-LY10) [µM] | DC50 (IRAK4; [4]) [µM]
CN(CCCOCCCc1cccc2c1n(C)c(=O)n2[C@H]1CCC(=O)NC1=O)C[C@H]1CC[C@H](n2cc(NC(=O)c3coc(-c4ccnc(NCC5CC5)c4)n3)c(C(F)F)n2)CC1 (single isomer, unassigned) [I-306] | < 0.01 | > 1 |  |  |  | 
CN(CCCOCCCc1cccc2c1n(C)c(=O)n2C1CCC(=O)N(C)C1=O)C[C@H]1CC[C@H](n2cc(NC(=O)c3coc(-c4ccnc(NCC5CC5)c4)n3)c(C(F)F)n2)CC1 (some centres unmarked) [I-246] | 0.1 to 1 | > 1 |  |  |  | 
Cn1c(=O)n(C2CCC(=O)NC2=O)c2cccc(CN3CCC(CN4CCC(n5cc(NC(=O)c6cnn7ccc(N[C@@H]8CCCC[C@@H]8O)nc67)c(C(F)F)n5)CC4)CC3)c21 (some centres unmarked) [I-150] | 0.01 to 0.1 | < 0.05 |  |  |  | 
CN(CCCOCCc1ccc2c(c1)n(C)c(=O)n2C1CCC(=O)NC1=O)C[C@H]1CC[C@H](n2cc(NC(=O)c3coc(-c4ccnc(NCC5CC5)c4)n3)c(C(F)F)n2)CC1 (some centres unmarked) [I-129] | < 0.01 | > 1 |  |  |  | 
O=C1CCC(N2C(=O)c3cccc(NCC4CC5(C4)CN(C[C@H]4CC[C@H](n6cc(NC(=O)c7cnn8ccc(N9C[C@H]%10C[C@@H]9CO%10)nc78)c(C(F)F)n6)CC4)C5)c3C2=O)C(=O)N1 (some centres unmarked) [I-461] |  | < 0.05 | 0.1 to 1 |  |  | 
Cn1c(=O)n(C2CCC(=O)NC2=O)c2ccc(CCCOCCC(=O)N3CCN([C@H]4CC[C@H](Nc5ncnc6[nH]cc(C7CCOCC7)c56)CC4)CC3)cc21 (some centres unmarked) [I-21] | > 1 | 0.5 to 1 |  | > 1 |  | 
O=C1CCC(N2C(=O)c3cccc(NCCCOC[C@@H]4CN(C[C@H]5CC[C@H](n6cc(NC(=O)c7cnn8ccc(N9C[C@H]%10C[C@@H]9CO%10)nc78)c(C(F)F)n6)CC5)CCO4)c3C2=O)C(=O)N1 (some centres unmarked) [I-352] | > 1 | 0.5 to 1 |  | 0.01 to 0.1 |  | 
COc1cc(C(=O)NCCCCN(C)C[C@H]2CC[C@H](n3cc(NC(=O)c4coc(-c5ccnc(NCC6CC6)c5)n4)c(C(F)F)n3)CC2)ccc1NC(=O)[C@@H]1N[C@@H](CC(C)(C)C)[C@](C#N)(c2ccc(Cl)cc2F)[C@H]1c1cccc(Cl)c1F [I-142] | > 1 |  |  | > 1 | > 1 | 
NC[C@H]1CC[C@H](n2cc(NC(=O)c3coc(-c4ccnc(NCC5CC5)c4)n3)c(C(F)F)n2)CC1 [I-312, N-[1-[4-(aminomethyl)cyclohexyl]-3-(difluoromethyl)pyrazol-4-yl]-2-[2-(cyclopropylmethylamino)-4-pyridyl]oxazole-4-carboxamide] | > 1 | > 1 |  | > 1 |  | 
CN(CCOCCNCc1ccc2c(c1)n(C)c(=O)n2C1CCC(=O)NC1=O)C[C@H]1CC[C@H](n2cc(NC(=O)c3coc(-c4ccnc(NCC5CC5)c4)n3)c(C(F)F)n2)CC1 (some centres unmarked) [I-107] | < 0.01 | > 1 |  |  |  | 
Cc1ccc(-n2nc(C3CCN(C(=O)CCCCOCCCc4cccc5c4n(C)c(=O)n5C4CCC(=O)NC4=O)CC3)cc2NC(=O)c2cnn3cccnc23)nc1 (centres unmarked) [I-160] | > 1 | > 1 |  | > 1 |  | 
CC[C@@H]1[C@H](F)C(=O)N[C@@H]1COc1ncc(C#C[C@H]2CC[C@H](CN3CCC(OCCC#Cc4ccc([C@H]5CN(C6CCC(=O)NC6=O)C(=O)O5)cc4)CC3)CC2)c2cc(C(N)=O)c(OC)cc12 (some centres unmarked) [I-206] | 0.01 to 0.1 | > 1 |  | 0.01 to 0.1 |  | 
O=C1CCC(N2C(=O)c3ccnc(NCCCOC4CCN(Cc5ccc(-n6cc(NC(=O)c7cnn8ccc(N9CCOCC9)nc78)c(C(F)F)n6)cc5)CC4)c3C2=O)C(=O)N1 (centres unmarked) [I-441] | 0.01 to 0.1 | > 1 |  | 0.01 to 0.1 |  | 
Cn1c(=O)n(C2CCC(=O)NC2=O)c2cccc(CCCOCC3CCN(C[C@H]4CC[C@H](n5cc(NC(=O)c6coc(-c7ccnc(NCC8CC8)c7)n6)c(C(F)F)n5)CC4)CC3)c21 (some centres unmarked) [I-120] | < 0.01 | > 1 |  |  |  | 
CN(C(=O)c1coc(-c2ccnc(NCC3CC3)c2)n1)c1cn([C@H]2CC[C@H](CN(C)C3CCN(Cc4cccc5c4n(C)c(=O)n5C4CCC(=O)NC4=O)CC3)CC2)nc1C(F)F (some centres unmarked) [I-395] | 0.1 to 1 | > 1 |  |  |  | 
CN1C(=O)C(C2CCC(=O)NC2=O)c2cccc(CCCOC3CCN(C[C@H]4CC[C@H](n5cc(NC(=O)c6cnn7ccc(NCCC(C)(C)O)nc67)c(C(F)F)n5)CC4)CC3)c21 (some centres unmarked) [I-288] | < 0.01 | > 1 |  |  |  | 

Structure (SMILES) | DC50 (IRAK4; [1]) [µM] | IC50 (OCI-LY10; Homo sapiens, OCI-Ly10, 96 h) [µM] | DC50 (IRAK4; [2]) [µM] | DC50 (IRAK4; [3]) [µM] | IC50 (OCI-LY10) [µM] | DC50 (IRAK4; [4]) [µM]
CN(C[C@H]1CC[C@H](n2cc(NC(=O)c3cnn4ccc(NCC5CC5)nc34)c(C(C)(C)O)n2)CC1)C1CCN(Cc2cccc3c2n(C)c(=O)n3C2CCC(=O)NC2=O)CC1 (some centres unmarked) [I-268] | 0.1 to 1 | > 1 |  |  |  | 
O=C1CCC(N2C(=O)c3cccc(NC4CC5(CCN(C[C@H]6CC[C@H](n7cc(NC(=O)c8cnn9ccc(N%10C[C@H]%11C[C@@H]%10CO%11)nc89)c(C(F)F)n7)CC6)CC5)C4)c3C2=O)C(=O)N1 (some centres unmarked) [I-381] | 0.01 to 0.1 | 0.05 to 0.1 |  | < 0.01 |  | 
CC[C@@H]1[C@H](F)C(=O)N[C@@H]1COc1ncc(C#C[C@H]2CC[C@H](CN3CCC(OCCNc4cccc5c4C(=O)N(C4CCC(=O)NC4=O)C5=O)CC3)CC2)c2cc(C(N)=O)c(OC)cc12 (some centres unmarked) [I-386] | 0.1 to 1 | < 0.05 |  | 0.01 to 0.1 |  | 
O=C1CCC(N2C(=O)c3cccc(N[C@H]4C[C@H](OC5CCN(C[C@H]6CC[C@H](n7cc(NC(=O)c8cnn9ccc(N%10C[C@H]%11C[C@@H]%10CO%11)nc89)c(C(F)F)n7)CC6)CC5)C4)c3C2=O)C(=O)N1 (some centres unmarked) [I-505] |  | > 1 | 0.01 to 0.1 |  |  | < 0.01
O=C1CCC(N2Cc3c(OCc4ccc(CN5CCN(C[C@H]6CC[C@H](n7cc(NC(=O)c8cnn9ccc(N%10CCOCC%10)nc89)c(C(F)F)n7)CC6)CC5)cc4)cccc3C2=O)C(=O)N1 (some centres unmarked) [I-377] | > 1 | < 0.05 |  | < 0.01 |  | 
O=C1CCC(n2c3cccc(CCCOC4CCN(C[C@H]5CC[C@H](n6cc(NC(=O)c7cnn8ccc(N9CCC(O)CC9)nc78)c(C(F)F)n6)CC5)CC4)c3c3cccnc32)C(=O)N1 (some centres unmarked) [I-151] | 0.01 to 0.1 | > 1 |  |  |  | 
COc1cc(C(=O)NCCCCCCN(C)C[C@H]2CC[C@H](n3cc(NC(=O)c4coc(-c5ccnc(NCC6CC6)c5)n4)c(C(F)F)n3)CC2)ccc1NC(=O)[C@@H]1N[C@@H](CC(C)(C)C)[C@](C#N)(c2ccc(Cl)cc2F)[C@H]1c1cccc(Cl)c1F [I-140] | > 1 |  |  | > 1 | > 1 | 
CN(C[C@H]1CC[C@H](n2cc(NC(=O)c3coc(-c4ccnc(NCC5CC5)c4)n3)c(C(F)F)n2)CC1)C1CCN(Cc2cccc3c2n(C)c(=O)n3[C@H]2CCC(=O)NC2=O)CC1 [I-308, 2-(2-((cyclopropylmethyl)amino)pyridin-4-yl)-N-(3-(difluoromethyl)-1-((1S,4r)-4-(((1-((1-((S)-2,6-dioxopiperidin-3-yl)-3-methyl-2-oxo-2,3-dihydro-1H-benzo [d]imidazol-4-yl)methyl)piperidin-4-yl)(methyl)amino)methyl)cyclohexyl)-1H-pyrazol-4-yl)oxazole-4-carboxamide] | < 0.01 | < 0.05 |  |  |  | 
O=C1CCC(N2C(=O)c3cccc(NCCCOCCCS(=O)(=O)NC(=O)[C@H]4CC[C@H](n5cc(NC(=O)c6cnn7ccc(N8C[C@H]9CC8CO9)nc67)c(C(F)F)n5)CC4)c3C2=O)C(=O)N1 (some centres unmarked) [I-440] | 0.1 to 1 | > 1 |  | > 1 |  | 
COc1cc(C(=O)NCCOCCOCCN(C)C[C@H]2CC[C@H](n3cc(NC(=O)c4coc(-c5ccnc(NCC6CC6)c5)n4)c(C(F)F)n3)CC2)ccc1NC(=O)[C@@H]1N[C@@H](CC(C)(C)C)[C@](C#N)(c2ccc(Cl)cc2F)[C@H]1c1cccc(Cl)c1F [I-145] | > 1 |  |  | > 1 | > 1 | 
CN(C[C@H]1CC[C@H](n2cc(NC(=O)c3cnn4ccc(N5CCOCC5)nc34)c(C(F)F)n2)CC1)[C@H]1C[C@H](Nc2cccc3c2C(=O)N(C2CCC(=O)NC2=O)C3=O)C1 (some centres unmarked) [I-458] |  | > 1 | 0.1 to 1 |  |  | > 1
CN(CCCOCCCNc1cccc2c1C(=O)N(C1CCC(=O)NC1=O)C2=O)C[C@H]1CC[C@H](n2cc(NC(=O)c3coc(-c4ccnc(N[C@@H]5CCCC[C@@H]5O)c4)n3)c(C(F)F)n2)CC1 (some centres unmarked) [I-399] | 0.01 to 0.1 | < 0.05 |  | < 0.01 |  | 
CN1C(=O)C(C2CCC(=O)NC2=O)c2cccc(CCCOC3CCN(C[C@H]4CC[C@H](n5cc(NC(=O)c6cnn7ccc(N8CC[C@H](O)C8)nc67)c(C(F)F)n5)CC4)CC3)c21 (some centres unmarked) [I-282] | < 0.01 | > 1 |  |  |  | 
CC[C@@H]1[C@H](F)C(=O)N[C@@H]1COc1ncc(C#CC2CCN(CCCC3CCN(Cc4ccc5c(c4)n(C)c(=O)n5C4CCC(=O)NC4=O)CC3)CC2)c2cc(C(N)=O)c(OC)cc12 (some centres unmarked) [I-193] | 0.1 to 1 | > 1 |  | 0.01 to 0.1 |  | 
NCC#Cc1ccc(-n2cc(NC(=O)c3coc(-c4ccnc(NCC5CC5)c4)n3)c(C(F)F)n2)cc1 [I-391, N-[l-[4-(3-aminoprop-1-ynyl)phenyl]-3-(difluoromethyl)pyrazol-4-yl]-2-[2-(cyclopropylmethylamino)-4-pyridyl]oxazole-4-carboxamide] | > 1 | > 1 |  | > 1 |  | 
